{
  "source": "patent US7258999B2",
  "about": "“PTH responsive gene” (Wyeth, priority 2002, dated 2007)",
  "key": {"PAIGB expression [1]": {"system": "PAIGB expression", "test": "RADE differential display of rat tibia RNA after PTH administration", "format": "in vivo", "conditions": "eight days", "method": "Total RNA was isolated and each RNA sample was then treated with 20 units of DNAse (Ambion, Austin, Tex.). After RNA cleaning, samples were split into three reverse transcription (RT) reactions. Each RT reaction contained 4 μg RNA, 1000 units SuperScript II RT (Gibco), 100 μM dNTPs and 0.2 μM anchor primer in a final volume of 100 μl. Anchor primers had the sequence (5′→3′) T11A, T11C, or T11G. For differential display each cDNA sample was subjected, in duplicate, to 80 PCR reactions using the appropriate anchor primer and one of 80 arbitrary primers (HAPs 1-80; Genhunter). PCR reactions contained in a final volume of 20 ul, 20 ng cDNA, 2 μM dNTPs, 0.2 μM anchor primer, 0.2 μM arbitrary primer, 1 unit Taq polymerase (Applied Biosystems (AB), Foster City, Calif.), and 2.5 μCi [α-^33P]dATP (2000 Ci/mmole). PCR conditions were as follows: 1 cycle of 92° C./2′, 40 cycles of [92° C./15″, 40° C./2′, 72° C./30″], and 1 cycle of 72° C./5′. PCR samples were then loaded onto a 50 cm 6% sequencing gel and run at 200 volts constant. Differentially expressed bands were excised from the dried gel. […]\nFemale Wister rats 4 weeks of age were treated with vehicle (saline) and human PTH (1-34) at a dose of 40 μg/kg of body weight for eight days. […] Three weeks post OVX total BMD was measured to determine if osteopenia was established. […]"}, "PAIGB expression [2]": {"system": "PAIGB expression", "test": "Real time PCR of PAIGB expression in rat tibia", "format": "in vivo", "method": "RNA isolation was performed on bone as well as from different cell lines used during experimentation. RNA was isolated from rat tibiae as follows. Following euthanasia by CO2 asphyxiation tibiae were dissected free of soft tissue as rapidly as possible with autoclaved instruments, wiped with autoclaved gauze soaked in ethanol and the epiphysis broken off at the proximal growth plate by hand and discarded. The tibia was then cut transversely with bone cutters just distal to the proximal growth plate and just proximal to the distal tibia-fibula junction to expose the trabecular bone and the bone marrow. The trabecular bone and marrow cavity was flushed with ice cold sterile PBS using a Lancer liquid transfer pipette (Oxford Labware, St. Louis, Mo.) to remove the marrow and the cleaned bone placed in liquid nitrogen.\nApplicants performed multiplex real time PCR (TaqMan) analysis on previously DNAsed samples using gene specific probe and primers and 18S ribosomal RNA probe and primer sets purchased from Applied Biosystem. (Foster City, Calif.) The samples were DNAsed according to the protocol provided by Ambion (DNA-free kit). TaqMan probe and primers for PAIGB was identify using Primer Express computer program. The sequence for rat PAIGB TaqMan probe was 6FAM-5′[…] (SEQ ID NO: 16) forward and reverse primers were 5′[…] 3′ (SEQ ID NO:17) and 5′ […] 3′ (SEQ ID NO:18) respectively. The final concentrations for probes were 500 nM and 40 nM for PAIGB and 18S ribosomal RNA or GAPDH respectively. The concentrations of the primers were 500 nM for PAIGB forward and reversed primers while 18S primers were 10 and 20 nM for forward and reversed primer respectively or 40 nM for GAPDH primers. Standards for rat samples were made from rat tibia or brain RNA in the range of 250 ng to 0.1 ng, while standards for mouse specific TaqMan were made from mouse brain RNA and human standards from human brain RNA (Clonetech, Palo Alto, Calif.) spanning the same range of concentration. Primers and probes for mouse PAIGB were: forward 5′ […] 3′ (SEQ ID NO:19), reverse, 5′ […] 3′ (SEQ ID NO:20) anti-sense and probe 5′ 6FAM-[…] (SEQ ID NO:21). Primers and probes for human PAIGB were: forward 5′ […] 3′ (SEQ ID NO:22), reverse 5′ […] 3′(SEQ ID NO:23), and PROBE 5′ 6FAM-[…] 3′(SEQ ID NO: 24). The Taq-man analysis was done using ABI 7700 Sequence Detector under following conditions: 30 min at 48° C., 10 min at 95° C. and 40 cycles of 15 sec at 95° C. and 60 sec at 60° C. Analysis of real-time PCR analysis was performed using (Sequence Detector, Macintosh) program.\nThe initial experiments measured the expression of PAIGB in the rat tibia after 8 days of treatment. In order to examine the time course of PTH action on PAIGB expression, experiments were performed on rats treated with intermittent PTH injections (40 μg/kg body weight) and tibias were collected for RNA isolation as well as evaluation in BMD changes. Time points of sample collection were 6 hours, 2 days, 4 days and 8 days after intermittent PTH treatment. Real time PCR analysis was performed on isolated RNA samples using above described primers.\nThe observed increase in PAIGB expression in bone treated with PTH is dose-dependent (FIG. 10B). OVX rats with established osteopenia were treated with increasing concentration of human PTH (1-34): 5, 10, 20, 40 and 80 μg/kg of body weight for 8 days with one daily injection. Six hours after last injection animals were scarified and bone samples were harvested for RNA isolation as described in Experimental Procedure section."}},
  "data": [
    {"substance": "human PTH (1-34)", "values": [
      {"measurement": "PAIGB expression in bone RNA (RADE)", "setting": "PAIGB expression [1]; continuous administration, 40 μg/kg/day", "result": "did not induce any changes"},
      {"measurement": "PAIGB expression in bone RNA (RADE)", "setting": "PAIGB expression [1]; intermittent injection, 40 μg/kg", "result": "induced"},
      {"measurement": "increase of PAIGB expression in bone", "setting": "PAIGB expression [2]; 40 μg/kg, one daily injection, 8 days, OVX rats", "result": 10, "unit": "fold"},
      {"measurement": "increase of PAIGB expression in bone", "setting": "PAIGB expression [2]; 80 μg/kg, one daily injection, 8 days, OVX rats", "result": 20, "unit": "fold"},
      {"measurement": "effect on PAIGB expression in bone", "setting": "PAIGB expression [2]; 5, 10 and 20 μg/kg, one daily injection, 8 days, OVX rats", "result": "did not have any effect"},
      {"measurement": "PAIGB expression over vehicle treated rats", "setting": "PAIGB expression [2]; 4 days of intermittent injection", "result": 20, "unit": "fold"},
      {"measurement": "effect on PAIGB expression in tibia", "setting": "PAIGB expression [2]; intermittent 40 μg/kg, days 4 and 8, compared with day 2", "result": "at the same magnitude"},
      {"measurement": "increase of PAIGB expression in tibia", "setting": "PAIGB expression [2]; intermittent 40 μg/kg, two days", "result": "~20", "unit": "fold"}
    ]}
  ]
}
